The values that follow come from patent publication US11319324B2, “Pyrazolo-pyrrolo-pyrimidine-dione derivatives as P2X3 inhibitors” (Bayer Aktiengesellschaft, priority 2017, dated 2022).

Bounds are passed on as bounds.

Common to all, as to format: cell-based
In one assay the target is T1, human P2X2/3 receptors (Homo sapiens, UniProt P56373+Q9UBL9).
T1 construct: expressed in transfected cells; host or cells: human astrocytoma 1321N1 (1312N1 [sic])
T1 sequence (P56373 1-397): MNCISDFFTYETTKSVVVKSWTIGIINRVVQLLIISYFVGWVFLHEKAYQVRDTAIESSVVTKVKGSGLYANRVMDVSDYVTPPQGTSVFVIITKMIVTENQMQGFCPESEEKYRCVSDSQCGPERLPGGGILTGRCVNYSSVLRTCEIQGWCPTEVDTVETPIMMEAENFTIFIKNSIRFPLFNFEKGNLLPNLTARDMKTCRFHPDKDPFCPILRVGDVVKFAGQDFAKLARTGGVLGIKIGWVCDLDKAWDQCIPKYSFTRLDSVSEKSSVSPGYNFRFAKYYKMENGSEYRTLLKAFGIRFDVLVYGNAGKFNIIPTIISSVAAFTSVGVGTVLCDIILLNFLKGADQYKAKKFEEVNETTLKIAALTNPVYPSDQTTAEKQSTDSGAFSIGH
T1 sequence (Q9UBL9 1-471): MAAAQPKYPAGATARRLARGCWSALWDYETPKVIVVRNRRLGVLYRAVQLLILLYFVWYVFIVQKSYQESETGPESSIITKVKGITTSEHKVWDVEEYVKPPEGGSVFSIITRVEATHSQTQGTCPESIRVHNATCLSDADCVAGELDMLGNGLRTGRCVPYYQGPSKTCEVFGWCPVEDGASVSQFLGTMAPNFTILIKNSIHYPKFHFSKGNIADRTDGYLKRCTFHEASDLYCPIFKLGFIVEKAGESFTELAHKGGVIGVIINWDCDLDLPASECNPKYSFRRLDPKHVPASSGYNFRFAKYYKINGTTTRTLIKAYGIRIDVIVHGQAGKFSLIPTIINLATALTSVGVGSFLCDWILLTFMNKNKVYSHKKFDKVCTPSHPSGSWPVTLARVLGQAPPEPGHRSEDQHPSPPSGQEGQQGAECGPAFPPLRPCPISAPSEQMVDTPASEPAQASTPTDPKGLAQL
As to the kind of experiment: Intracellular calcium measurement, antagonist activity at human P2X2/3 receptors (hP2X23 1321N1), Fluo8. As to conditions: for IC50: column 4); 1321N1 cells, human P2X2/3, Fluo8, agonist ATP at EC50; read-out: 4) hP2X2/3 IC50 [nM] (1321N1); for hP2X23/hP2X3* Selectivity (1321N1): ratio of column 4) hP2X2/3 to column 3) hP2X3, 1321N1. A digest of the protocol: (§1)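 Antagonism was assessed by decrease of the Fluo8 calcium signal after ATP challenge, with ATP dosed at the EC50 of whichever receptor was tested. Stable 1321N1 astrocytoma lines expressed either human P2X3 or both P2X2 and P2X3, and were dye-loaded 60 min before a 10 min compound incubation.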

The target in assay [1] is T2, human P2X3 receptor (Homo sapiens, UniProt P56373).
T2 sequence (P56373 1-397): T1 sequence (P56373 1-397)
As to the kind of experiment: Intracellular calcium measurement to assess antagonist activity at human P2X3 receptors (hP2X3 CHO), photina luminescence. Set-up: expressed in transfected cells; host or cells: Chinese hamster ovary (CHO) cells. The note with it: column 2), CHO cells, agonist α,β-methylene-ATP at EC50. The method, boiled down: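 Antagonism read as lowered photina luminescence after agonist stimulation in recombinant hP2X3/photina CHO cells. Cells seeded one day earlier (30 °C) and reconstituted with 5 μg/ml coelenterazine in 2 mM Ca-tyrode buffer for 3 h at 37 °C before measurement.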

Assay [2] deals with T2, human P2X3 receptor. As to the kind of experiment: Intracellular calcium measurement, antagonist activity at human P2X3 receptors (hP2X3 1321N1), Fluo8. Set-up: expressed in transfected cells; host or cells: human astrocytoma 1321N1 (1312N1 [sic]). As to conditions: column 3); 1321N1 cells, human P2X3, Fluo8, agonist ATP at EC50. A digest of the protocol:
as §1

`Cc1ccc(-c2cc3n(CC(=O)Nc4ccc(F)cn4)c4c(c(=O)n3n2)CN([C@@H]2CCOC2)C4=O)nc1` [Example 160, N-(5-fluoropyridin-2-yl)-2-[2-(5-methylpyridin-2-yl)-5,8-dioxo-6-[(3R)-oxolan-3-yl]-5,6,7,8-tetrahydro-4H-pyrazolo[1,5-a]pyrrolo[3,4-d]pyrimidin-4-yl]acetamide]: the IC50 on human P2X2/3 receptors worked out at 2200 nM; on human P2X3 receptor [1], 16 nM; at human P2X3 receptor [2], 6 nM. In addition, the “hP2X23/hP2X3* Selectivity (1321N1)” value on human P2X2/3 receptors was found to be 367.
On the same counts, the results for `CC(C)N1Cc2c(n(CC(=O)Nc3ccc(F)cn3)c3cc(NC4CC4)nn3c2=O)C1=O` [Example 167, 2-[2-(cyclopropylamino)-5,8-dioxo-6-(propan-2-yl)-5,6,7,8-tetrahydro-4H-pyrazolo[1,5-a]pyrrolo[3,4-d]pyrimidin-4-yl]-N-(5-fluoropyridin-2-yl)acetamide] are 2300 nM, 36 nM, 18 nM and 128.
On the same counts, the results for `CC(C)N1Cc2c(n(CC(=O)Nc3ccc(F)cn3)c3cc(NC4CCCC4)nn3c2=O)C1=O` [Example 168] are 2350 nM, 17 nM, 9 nM and 250.
For `COCCNc1cc2n(CC(=O)Nc3ccc(F)cn3)c3c(c(=O)n2n1)CN(C(C)C)C3=O` [Example 169], the figures for the IC50 at human P2X2/3 receptors, at human P2X3 receptor [1] and at human P2X3 receptor [2] were greater than 20700 nM, 108 nM and 120 nM, respectively. On human P2X2/3 receptors, the “hP2X23/hP2X3* Selectivity (1321N1)” value is on record as greater than 173.
On the same counts, the results for `CC(C)N1Cc2c(n(CC(=O)Nc3ccc(F)cn3)c3cc(NCC(F)F)nn3c2=O)C1=O` [Example 170] are greater than 20400 nM, 59 nM, 120 nM and greater than 170.
In the case of `CC(C)Nc1cc2n(CC(=O)Nc3ccc(F)cn3)c3c(c(=O)n2n1)CN(C(C)C)C3=O` [Example 171], the IC50 on human P2X2/3 receptors came to 4900 nM; on human P2X3 receptor [1], 27 nM; on human P2X3 receptor [2], 33 nM. The “hP2X23/hP2X3* Selectivity (1321N1)” value at human P2X2/3 receptors came to 148.
Take `CC(C)N1Cc2c(n(CC(=O)Nc3ccc(F)cn3)c3cc(N(C)C)nn3c2=O)C1=O` [Example 172]: the IC50 on human P2X2/3 receptors was determined as 6350 nM; at human P2X3 receptor [1], 35 nM; on human P2X3 receptor [2], 42 nM. Moreover, the “hP2X23/hP2X3* Selectivity (1321N1)” value on human P2X2/3 receptors is 150.
For `CCNc1cc2n(CC(=O)Nc3ccc(F)cn3)c3c(c(=O)n2n1)CN(C(C)C)C3=O` [Example 173], in that order: 8900 nM, 58 nM, 104 nM and 85.
On to `CC(C)N1Cc2c(n(CC(=O)Nc3ccc(F)cn3)c3cc(NCC4CC4)nn3c2=O)C1=O` [Example 175], for which the results for the IC50 on human P2X2/3 receptors, on human P2X3 receptor [1] and on human P2X3 receptor [2] were 6950 nM, 73 nM and 37 nM, respectively. For the same compound, the “hP2X23/hP2X3* Selectivity (1321N1)” value on human P2X2/3 receptors was found to be 190.
Turning to `CC(C)N1Cc2c(n(CC(=O)Nc3ccc(F)cn3)c3cc(NCCOCc4ccccc4)nn3c2=O)C1=O` [Example 176, 2-[2-{[2-(benzyloxy)ethyl]amino}-5,8-dioxo-6-(propan-2-yl)-5,6,7,8-tetrahydro-4H-pyrazolo[1,5-a]pyrrolo[3,4-d]pyrimidin-4-yl]-N-(5-fluoropyridin-2-yl)acetamide], the figures for the IC50 at human P2X2/3 receptors, at human P2X3 receptor [1] and on human P2X3 receptor [2] were 7700 nM, 88 nM and 68 nM, respectively. The “hP2X23/hP2X3* Selectivity (1321N1)” value on human P2X2/3 receptors was determined as 114.
`COC[C@H](C)N1Cc2c(n(CC(=O)Nc3ccc(F)cn3)c3cc(N(C)C)nn3c2=O)C1=O` [Example 177]: the IC50 on human P2X2/3 receptors was 11500 nM; on human P2X3 receptor [1] it was 30 nM; on human P2X3 receptor [2], 29 nM. Besides, on human P2X2/3 receptors, the “hP2X23/hP2X3* Selectivity (1321N1)” value came to 397.
Turning to `COC[C@H](C)N1Cc2c(n(CC(=O)Nc3ccc(F)cn3)c3cc(NC4CCCC4)nn3c2=O)C1=O` [Example 178], the IC50 on human P2X2/3 receptors is 2200 nM; on human P2X3 receptor [1], 14 nM; on human P2X3 receptor [2], 2 nM. In addition, the “hP2X23/hP2X3* Selectivity (1321N1)” value on human P2X2/3 receptors is reported as 917.
For `CC(C)N1Cc2c(n(CC(=O)Nc3ccc(F)cn3)c3cc(N4CCOCC4)nn3c2=O)C1=O` [Example 180, N-(5-fluoropyridin-2-yl)-2-[2-(morpholin-4-yl)-5,8-dioxo-6-(propan-2-yl)-5,6,7,8-tetrahydro-4H-pyrazolo[1,5-a]pyrrolo[3,4-d]pyrimidin-4-yl]acetamide], in that order: greater than 32000 nM, 175 nM, 170 nM and greater than 188.
For `CC(C)N1Cc2c(n(CC(=O)Nc3ccc(F)cn3)c3cc(N4CCN(C)CC4)nn3c2=O)C1=O` [Example 181, N-(5-fluoropyridin-2-yl)-2-[2-(4-methylpiperazin-1-yl)-5,8-dioxo-6-(propan-2-yl)-5,6,7,8-tetrahydro-4H-pyrazolo[1,5-a]pyrrolo[3,4-d]pyrimidin-4-yl]acetamide], in that order: 5550 nM, 63 nM, 32 nM and 173.
On the same counts, the results for `CC(C)N1Cc2c(n(CC(=O)Nc3ccc(F)cn3)c3cc(C(=O)N(C)C)nn3c2=O)C1=O` [Example 182, 4-{2-[(5-fluoropyridin-2-yl)amino]-2-oxoethyl}-N,N-dimethyl-5,8-dioxo-6-(propan-2-yl)-5,6,7,8-tetrahydro-4H-pyrazolo[1,5-a]pyrrolo[3,4-d]pyrimidine-2-carboxamide] are greater than 32000 nM, 109 nM, 165 nM and greater than 194.
Regarding `CC(C)N1Cc2c(n(CC(=O)Nc3ccc(F)cn3)c3cc(C(=O)N4CCCCC4)nn3c2=O)C1=O` [Example 183], the IC50 at human P2X2/3 receptors turned out to be 2300 nM; on human P2X3 receptor [1], 23 nM; on human P2X3 receptor [2], 20 nM. Further, at human P2X2/3 receptors, the “hP2X23/hP2X3* Selectivity (1321N1)” value is reported as 118.
On the same counts, the results for `CC(C)N1Cc2c(n(CC(=O)Nc3ccc(F)cn3)c3cc(C(=O)NCC(F)F)nn3c2=O)C1=O` [Example 184] are 3200 nM, 38 nM, 46 nM and 70.
On the same counts, the results for `CC(C)N1Cc2c(n(CC(=O)Nc3ccc(F)cn3)c3cc(C(=O)NC4CCCC4)nn3c2=O)C1=O` [Example 185] are 3350 nM, 22 nM, 40 nM and 84.
`CC(C)N1Cc2c(n(CC(=O)Nc3ccc(F)cn3)c3cc(C(=O)NC(C)(C)C)nn3c2=O)C1=O` [Example 186]: the results for the IC50 on human P2X2/3 receptors, at human P2X3 receptor [1] and on human P2X3 receptor [2] were greater than 32000 nM, 124 nM and 1850 nM, respectively. Also, at human P2X2/3 receptors, the “hP2X23/hP2X3* Selectivity (1321N1)” value was greater than 17.
On the same counts, the results for `CC(C)N1Cc2c(n(CC(=O)Nc3ccc(F)cn3)c3cc(C(=O)NCC4CC4)nn3c2=O)C1=O` [Example 187] are 2300 nM, 21 nM, 21 nM and 112.
On the same counts, the results for `CC(C)N1Cc2c(n(CC(=O)Nc3ccc(F)cn3)c3cc(C(=O)N4CCN(C)CC4)nn3c2=O)C1=O` [Example 188] are greater than 32000 nM, 91 nM, 120 nM and greater than 267.
As to `COC[C@H](C)N1Cc2c(n(CC(=O)Nc3ccc(F)cn3)c3cc(C(=O)N(C)C)nn3c2=O)C1=O` [Example 189], the IC50 at human P2X2/3 receptors is greater than 23500 nM; at human P2X3 receptor [1] it was 35 nM; at human P2X3 receptor [2], 81 nM. The “hP2X23/hP2X3* Selectivity (1321N1)” value on human P2X2/3 receptors is greater than 291.
On the same counts, the results for `COC[C@H](C)N1Cc2c(n(CC(=O)Nc3ccc(F)cn3)c3cc(C(=O)NCC4CC4)nn3c2=O)C1=O` [Example 190] are 5900 nM, 10 nM, 16 nM and 361.
